According to the NIST ThermoML archive (doi:10.1021/acs.jced.8b00165):
± gives the expanded uncertainty stated by the source.

Conditions: Crystal; DTA

CNC(=O)c1cc(Oc2ccc(N)cc2)ccn1 [4-(4-aminophenoxy)-N-methylpyridine-2-carboxamide]
Normal melting temperature: 117.00 ± 1.1 °C
